Results: US6358885B1, “Substituted phenylheterocyclic herbicides” (Mississippi State University, priority 1992, dated 2002)

Legend:
Assay in all cases: Test B preemergence/postemergence greenhouse plant response rating 0 to 10
[1] = test system: giant foxtail; assay type: in vivo, Setaria faberii; conditions: 0 to 10 scale
Outline: (§1)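 Test chemicals were sprayed onto freshly planted seed and, concurrently, onto young plants between the one and four leaf stage. After a twelve- to sixteen-day greenhouse period, each species was visually compared with untreated controls.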

[2] = test system: cocklebur; assay type: in vivo, Xanthium pensylvanicum; conditions: 0 to 10 scale
Outline: as §1

[3] = test system: corn; assay type: in vivo, Zea mays; conditions: 0 to 10 scale
Outline: as §1

[4] = test system: sorghum; assay type: in vivo, Sorghum bicolor; conditions: 0 to 10 scale
Outline: as §1

[5] = test system: sugar beet; assay type: in vivo, Beta vulgaris; conditions: 0 to 10 scale
Outline: as §1

[6] = test system: purple nutsedge; assay type: in vivo, Cyperus rotundus; conditions: 0 to 10 scale
Outline: as §1

[7] = test system: crabgrass; assay type: in vivo, Digitaria spp.; conditions: PREEMERGENCE, 0 to 10 scale
Outline: as §1

[8] = test system: velvetleaf; assay type: in vivo, Abutilon theophrasti; conditions: 0 to 10 scale
Outline: as §1

[9] = test system: cotton; assay type: in vivo, Gossypium hirsutum; conditions: 0 to 10 scale
Outline: as §1

[10] = test system: wild oat; assay type: in vivo, Avena fatua; conditions: 0 to 10 scale
Outline: as §1

[11] = test system: barley; assay type: in vivo, Hordeum vulgare; conditions: 0 to 10 scale
Outline: as §1

[12] = test system: wheat; assay type: in vivo, Triticum aestivum; conditions: 0 to 10 scale
Outline: as §1

[13] = test system: cheatgrass; assay type: in vivo, Bromus secalinus; conditions: 0 to 10 scale
Outline: as §1

[14] = test system: rice; assay type: in vivo, Oryza sativa; conditions: 0 to 10 scale
Outline: as §1

[15] = test system: bedstraw; assay type: in vivo, Galium aparine; conditions: 0 to 10 scale
Outline: as §1

[16] = test system: rape; assay type: in vivo, Brassica napus; conditions: 0 to 10 scale
Outline: as §1

[17] = test system: chickweed; assay type: in vivo, Stellaria media; conditions: 0 to 10 scale
Outline: as §1

[18] = test system: blackgrass; assay type: in vivo, Alopecurus myosuroides; conditions: 0 to 10 scale
Outline: as §1

[19] = test system: soybean; assay type: in vivo, Glycine max; conditions: 0 to 10 scale
Outline: as §1

[20] = test system: barnyardgrass; assay type: in vivo, Echinochloa crus-galli; conditions: 0 to 10 scale
Outline: as §1

[21] = test system: wild buckwheat; assay type: in vivo, Polygonum convolvulus; conditions: 0 to 10 scale
Outline: as §1

[22] = test system: lambsquarters; assay type: in vivo, Chenopodium album; conditions: 0 to 10 scale
Outline: as §1

[23] = test system: morningglory; assay type: in vivo, Ipomoea hederacea; conditions: 0 to 10 scale
Outline: as §1

CC(=O)c1cc(-c2nn3c(c2Cl)CCCC3)c(F)cc1Cl [Compound 45]
2: Plant response rating, Giant foxtail ([1]; PREEMERGENCE, Rate 50 g/ha) | Plant response rating, Velvetleaf ([8]; PREEMERGENCE, Rate 50 g/ha) | Plant response rating, Wild oat ([10]; POSTEMERGENCE, Rate 50 g/ha) | Plant response rating, Wild oat ([10]; PREEMERGENCE, Rate 50 g/ha) | Plant response rating, Barley ([11]; Rate 200 g/ha, PREEMERGENCE) | Plant response rating, Wheat ([12]; PREEMERGENCE, Rate 50 g/ha) | Plant response rating, Cheatgrass ([13]; PREEMERGENCE, Rate 50 g/ha) | Plant response rating, Cheatgrass ([13]; Rate 200 g/ha, PREEMERGENCE) | Plant response rating, Bedstraw ([15]; PREEMERGENCE, Rate 50 g/ha) | Plant response rating, Rape ([16]; PREEMERGENCE, Rate 50 g/ha) | Plant response rating, Chickweed ([17]; Rate 200 g/ha, PREEMERGENCE) | Plant response rating, Blackgrass ([18]; PREEMERGENCE, Rate 50 g/ha) | Plant response rating, Soybean ([19]; Rate 200 g/ha, PREEMERGENCE) | Plant response rating, Morningglory ([23]; PREEMERGENCE, Rate 50 g/ha)
4: Plant response rating, Cocklebur ([2]; Rate 200 g/ha, PREEMERGENCE) | Plant response rating, Sorghum ([4]; POSTEMERGENCE, Rate 50 g/ha) | Plant response rating, Barley ([11]; POSTEMERGENCE, Rate 50 g/ha) | Plant response rating, Cheatgrass ([13]; POSTEMERGENCE, Rate 50 g/ha) | Plant response rating, Bedstraw ([15]; Rate 200 g/ha, PREEMERGENCE) | Plant response rating, Morningglory ([23]; Rate 200 g/ha, PREEMERGENCE)
8: Plant response rating, Cocklebur ([2]; POSTEMERGENCE, Rate 200 g/ha) | Plant response rating, Wheat ([12]; Rate 200 g/ha, POSTEMERGENCE) | Plant response rating, Bedstraw ([15]; POSTEMERGENCE, Rate 50 g/ha) | Plant response rating, Chickweed ([17]; POSTEMERGENCE, Rate 50 g/ha) | Plant response rating, Soybean ([19]; POSTEMERGENCE, Rate 50 g/ha) | Plant response rating, Soybean ([19]; Rate 200 g/ha, POSTEMERGENCE) | Plant response rating, Morningglory ([23]; POSTEMERGENCE, Rate 50 g/ha)
9: Plant response rating, Sugar beet ([5]; Rate 200 g/ha, PREEMERGENCE) | Plant response rating, Velvetleaf ([8]; POSTEMERGENCE, Rate 50 g/ha) | Plant response rating, Morningglory ([23]; Rate 200 g/ha, POSTEMERGENCE)
10: Plant response rating, Sugar beet ([5]; Rate 200 g/ha, POSTEMERGENCE) | Plant response rating, Velvetleaf ([8]; Rate 200 g/ha, POSTEMERGENCE) | Plant response rating, Cotton ([9]; POSTEMERGENCE, Rate 50 g/ha) | Plant response rating, Cotton ([9]; POSTEMERGENCE, Rate 200 g/ha) | Plant response rating, Bedstraw ([15]; POSTEMERGENCE, Rate 200 g/ha) | Plant response rating, Rape ([16]; Rate 200 g/ha, POSTEMERGENCE) | Plant response rating, Wild buckwheat ([21]; POSTEMERGENCE, Rate 50 g/ha) | Plant response rating, Wild buckwheat ([21]; Rate 200 g/ha, POSTEMERGENCE) | Plant response rating, Wild buckwheat ([21]; Rate 200 g/ha, PREEMERGENCE) | Plant response rating, Lambsquarter ([22]; POSTEMERGENCE, Rate 50 g/ha) | Plant response rating, Lambsquarter ([22]; PREEMERGENCE, Rate 50 g/ha) | Plant response rating, Lambsquarter ([22]; Rate 200 g/ha, POSTEMERGENCE) | Plant response rating, Lambsquarter ([22]; Rate 200 g/ha, PREEMERGENCE)
5: Plant response rating, Giant foxtail ([1]; POSTEMERGENCE, Rate 50 g/ha) | Plant response rating, Giant foxtail ([1]; Rate 200 g/ha, POSTEMERGENCE) | Plant response rating, Giant foxtail ([1]; Rate 200 g/ha, PREEMERGENCE) | Plant response rating, Corn ([3]; POSTEMERGENCE, Rate 50 g/ha) | Plant response rating, Corn ([3]; POSTEMERGENCE, Rate 200 g/ha) | Plant response rating, Sorghum ([4]; Rate 200 g/ha, POSTEMERGENCE) | Plant response rating, Wheat ([12]; Rate 200 g/ha, PREEMERGENCE) | Plant response rating, Barnyardgrass ([20]; POSTEMERGENCE, Rate 200 g/ha) | Plant response rating, Barnyardgrass ([20]; Rate 200 g/ha, PREEMERGENCE)
1: Plant response rating, Corn ([3]; Rate 200 g/ha, PREEMERGENCE) | Plant response rating, Sorghum ([4]; Rate 200 g/ha, PREEMERGENCE)
6: Plant response rating, Nutsedge ([6]; Rate 200 g/ha, POSTEMERGENCE) | Plant response rating, Crabgrass ([7]; Rate 200 g/ha) | Plant response rating, Cheatgrass ([13]; POSTEMERGENCE, Rate 200 g/ha) | Plant response rating, Rice ([14]; POSTEMERGENCE, Rate 50 g/ha) | Plant response rating, Rice ([14]; Rate 200 g/ha, POSTEMERGENCE) | Plant response rating, Blackgrass ([18]; POSTEMERGENCE, Rate 50 g/ha)
7: Plant response rating, Cocklebur ([2]; POSTEMERGENCE, Rate 50 g/ha) | Plant response rating, Sugar beet ([5]; POSTEMERGENCE, Rate 50 g/ha) | Plant response rating, Sugar beet ([5]; PREEMERGENCE, Rate 50 g/ha) | Plant response rating, Rape ([16]; Rate 200 g/ha, PREEMERGENCE) | Plant response rating, Chickweed ([17]; POSTEMERGENCE, Rate 200 g/ha)
3: Plant response rating, Wild oat ([10]; Rate 200 g/ha, POSTEMERGENCE) | Plant response rating, Barley ([11]; POSTEMERGENCE, Rate 200 g/ha) | Plant response rating, Wheat ([12]; POSTEMERGENCE, Rate 50 g/ha) | Plant response rating, Rice ([14]; Rate 200 g/ha, PREEMERGENCE) | Plant response rating, Rape ([16]; POSTEMERGENCE, Rate 50 g/ha) | Plant response rating, Chickweed ([17]; PREEMERGENCE, Rate 50 g/ha) | Plant response rating, Blackgrass ([18]; POSTEMERGENCE, Rate 200 g/ha) | Plant response rating, Blackgrass ([18]; Rate 200 g/ha, PREEMERGENCE) | Plant response rating, Barnyardgrass ([20]; POSTEMERGENCE, Rate 50 g/ha) | Plant response rating, Wild buckwheat ([21]; PREEMERGENCE, Rate 50 g/ha)
0: Plant response rating, Cocklebur ([2]; PREEMERGENCE, Rate 50 g/ha) | Plant response rating, Corn ([3]; PREEMERGENCE, Rate 50 g/ha) | Plant response rating, Sorghum ([4]; PREEMERGENCE, Rate 50 g/ha) | Plant response rating, Nutsedge ([6]; PREEMERGENCE, Rate 50 g/ha) | Plant response rating, Nutsedge ([6]; Rate 200 g/ha, PREEMERGENCE) | Plant response rating, Crabgrass ([7]; Rate 50 g/ha) | Plant response rating, Velvetleaf ([8]; Rate 200 g/ha, PREEMERGENCE) | Plant response rating, Cotton ([9]; PREEMERGENCE, Rate 50 g/ha) | Plant response rating, Cotton ([9]; Rate 200 g/ha, PREEMERGENCE) | Plant response rating, Barley ([11]; PREEMERGENCE, Rate 50 g/ha) | Plant response rating, Rice ([14]; PREEMERGENCE, Rate 50 g/ha) | Plant response rating, Soybean ([19]; PREEMERGENCE, Rate 50 g/ha) | Plant response rating, Barnyardgrass ([20]; PREEMERGENCE, Rate 50 g/ha)
